Test results from patent US12187742B2 (XRAD Therapeutics, Inc., priority 2018, dated 2025).
Counter-ions that a name gives are not always drawn.

Key:
DNA-PK = DNA-PK (Homo sapiens (Human), UniProt P78527); assay: DNA-PK Enzyme-Linked Immunosorbent Assay (phosphorylation of GST-p53 (1-101) peptide); format: biochemical; settings: ELISA, 20 μM ATP
Procedure, shortened: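 ELISA with plate-bound GST-p53 (1-101) phosphorylated by DNA-PK (0.1 μg/mL final) with 20 μM ATP for 1 h at 25 °C. Compounds tested over 10 3-fold doses from 100 nM top final. Phospho-p53 Ser15 detected by antibody, HRP and TMB, absorbance at 450 nm.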

ATM = ATM (Homo sapiens (Human), UniProt Q13315); assay: ATM in Cell Western Assay (pKAP1 in etoposide-treated MCF-7 cells); format: cell-based; settings: pKAP1 in etoposide-treated MCF-7 cells
Sequence of ATM (Q13315 whole entry): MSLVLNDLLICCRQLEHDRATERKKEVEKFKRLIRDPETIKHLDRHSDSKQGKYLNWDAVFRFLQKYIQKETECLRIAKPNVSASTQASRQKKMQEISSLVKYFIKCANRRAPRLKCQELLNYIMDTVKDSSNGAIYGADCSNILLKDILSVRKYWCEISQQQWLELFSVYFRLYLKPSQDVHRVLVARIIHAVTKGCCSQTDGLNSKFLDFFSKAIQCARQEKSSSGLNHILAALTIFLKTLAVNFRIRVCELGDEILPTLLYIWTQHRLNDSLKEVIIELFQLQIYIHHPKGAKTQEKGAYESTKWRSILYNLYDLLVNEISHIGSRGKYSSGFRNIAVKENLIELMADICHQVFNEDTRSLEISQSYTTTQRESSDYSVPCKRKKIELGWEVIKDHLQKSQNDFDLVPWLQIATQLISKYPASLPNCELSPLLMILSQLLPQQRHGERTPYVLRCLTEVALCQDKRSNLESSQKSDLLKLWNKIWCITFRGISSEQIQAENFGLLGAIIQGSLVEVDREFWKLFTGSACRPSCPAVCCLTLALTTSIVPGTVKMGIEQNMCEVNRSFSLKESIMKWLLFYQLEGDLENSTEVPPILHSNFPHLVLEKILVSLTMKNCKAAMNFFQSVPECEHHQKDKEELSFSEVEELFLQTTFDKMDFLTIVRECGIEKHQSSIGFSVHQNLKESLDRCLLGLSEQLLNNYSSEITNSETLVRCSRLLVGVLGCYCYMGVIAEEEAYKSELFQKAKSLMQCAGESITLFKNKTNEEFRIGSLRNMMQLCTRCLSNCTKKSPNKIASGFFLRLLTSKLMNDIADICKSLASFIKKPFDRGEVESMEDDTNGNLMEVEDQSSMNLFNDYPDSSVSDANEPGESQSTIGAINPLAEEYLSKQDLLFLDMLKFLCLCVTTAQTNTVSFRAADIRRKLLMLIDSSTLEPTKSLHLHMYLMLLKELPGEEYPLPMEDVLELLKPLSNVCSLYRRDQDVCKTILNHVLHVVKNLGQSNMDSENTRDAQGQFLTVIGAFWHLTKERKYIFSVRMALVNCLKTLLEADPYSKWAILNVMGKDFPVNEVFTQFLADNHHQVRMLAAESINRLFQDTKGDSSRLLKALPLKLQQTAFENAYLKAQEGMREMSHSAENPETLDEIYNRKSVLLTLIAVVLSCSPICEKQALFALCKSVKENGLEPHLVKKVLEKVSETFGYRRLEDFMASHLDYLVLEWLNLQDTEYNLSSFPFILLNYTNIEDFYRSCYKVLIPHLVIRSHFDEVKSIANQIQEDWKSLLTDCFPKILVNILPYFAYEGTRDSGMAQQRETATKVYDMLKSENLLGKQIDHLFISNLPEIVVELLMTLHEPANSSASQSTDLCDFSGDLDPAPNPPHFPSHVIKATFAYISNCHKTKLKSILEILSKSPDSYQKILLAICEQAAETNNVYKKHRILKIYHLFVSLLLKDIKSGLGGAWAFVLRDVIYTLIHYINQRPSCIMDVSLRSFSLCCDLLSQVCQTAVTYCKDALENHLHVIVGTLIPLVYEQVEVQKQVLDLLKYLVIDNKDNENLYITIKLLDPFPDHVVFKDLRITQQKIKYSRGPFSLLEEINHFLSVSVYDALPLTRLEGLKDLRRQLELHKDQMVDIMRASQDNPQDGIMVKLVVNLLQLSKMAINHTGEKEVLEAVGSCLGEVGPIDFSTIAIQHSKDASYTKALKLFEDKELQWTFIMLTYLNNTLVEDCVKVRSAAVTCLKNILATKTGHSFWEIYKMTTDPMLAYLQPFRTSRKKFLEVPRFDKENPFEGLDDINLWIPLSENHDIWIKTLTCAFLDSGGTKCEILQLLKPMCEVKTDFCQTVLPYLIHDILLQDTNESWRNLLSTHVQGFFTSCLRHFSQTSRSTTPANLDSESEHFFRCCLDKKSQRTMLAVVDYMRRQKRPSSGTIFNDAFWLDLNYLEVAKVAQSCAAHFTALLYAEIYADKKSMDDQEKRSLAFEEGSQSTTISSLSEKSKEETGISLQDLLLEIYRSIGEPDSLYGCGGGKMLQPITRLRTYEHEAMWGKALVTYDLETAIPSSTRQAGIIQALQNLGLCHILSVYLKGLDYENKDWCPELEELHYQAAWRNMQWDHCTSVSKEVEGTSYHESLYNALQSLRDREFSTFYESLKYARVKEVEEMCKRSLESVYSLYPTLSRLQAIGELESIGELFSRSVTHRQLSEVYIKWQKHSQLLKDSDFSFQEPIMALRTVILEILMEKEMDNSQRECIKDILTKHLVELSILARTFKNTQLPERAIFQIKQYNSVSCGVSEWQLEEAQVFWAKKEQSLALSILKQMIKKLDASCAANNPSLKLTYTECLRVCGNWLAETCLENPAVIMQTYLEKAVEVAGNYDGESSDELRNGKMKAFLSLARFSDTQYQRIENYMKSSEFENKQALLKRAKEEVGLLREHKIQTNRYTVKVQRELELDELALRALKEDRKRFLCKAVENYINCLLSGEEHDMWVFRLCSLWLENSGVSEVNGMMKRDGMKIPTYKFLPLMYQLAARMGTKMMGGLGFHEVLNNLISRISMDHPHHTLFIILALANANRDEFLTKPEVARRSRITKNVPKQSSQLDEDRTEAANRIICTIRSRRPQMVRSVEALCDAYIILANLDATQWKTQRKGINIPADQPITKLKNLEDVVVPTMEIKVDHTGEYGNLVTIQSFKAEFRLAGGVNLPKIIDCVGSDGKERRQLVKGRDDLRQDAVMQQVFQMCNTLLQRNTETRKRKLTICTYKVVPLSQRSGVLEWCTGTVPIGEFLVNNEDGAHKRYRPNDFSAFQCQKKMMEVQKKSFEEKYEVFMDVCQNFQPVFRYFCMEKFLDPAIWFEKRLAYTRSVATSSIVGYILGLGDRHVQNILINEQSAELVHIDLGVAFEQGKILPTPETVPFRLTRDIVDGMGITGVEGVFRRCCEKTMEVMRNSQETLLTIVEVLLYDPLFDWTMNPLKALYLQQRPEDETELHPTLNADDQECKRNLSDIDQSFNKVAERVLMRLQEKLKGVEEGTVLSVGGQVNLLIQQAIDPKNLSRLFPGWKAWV
Procedure, shortened: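 Cells received compounds in a 10-dose, 3-fold series from a 1 μM final top concentration, then 100 μM etoposide, for 1 hr at 37° C. They were then fixed with paraformaldehyde and permeabilized with 0.1% Triton X-100. After immunostaining, plates were scanned on an infrared imager.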

Structure (SMILES)	IC50 (DNA-PK)	IC50 (ATM)
CC(C)NCCOc1ncc(-c2cc3c4c(cnc3cc2F)N(C)C(=O)C42CN(c3ccc(Cl)cc3)C2)cc1NS(C)(=O)=O [Example 523, N-(5-(1-(4-Chlorophenyl)-7′-fluoro-3′-methyl-2′-oxo-2′,3′-dihydrospiro[azetidine-3,1′-pyrrolo[2,3-c]quinolin]-8′-yl)-2-(2-(isopropylamino)ethoxy)pyridin-3-yl)methanesulfonamide hydrochloride]	< 0.5 nM	1 to 100 nM
CC(C)NCCOc1ncc(-c2cc3c4c(cnc3cc2F)N(C)C(=O)C42CN(c3cccc(Cl)c3)C2)cc1NS(C)(=O)=O [Example 524, N-(5-(1-(3-Chlorophenyl)-7′-fluoro-3′-methyl-2′-oxo-2′,3′-dihydrospiro[azetidine-3,1′-pyrrolo[2,3-c]quinolin]-8′-yl)-2-(2-(isopropylamino)ethoxy)pyridin-3-yl)methanesulfonamide]	1 to 100 nM	1 to 100 nM
CC(C)NCCOc1ncc(-c2cc3c4c(cnc3cc2F)N(C)C(=O)C42CN(c3ccccc3Cl)C2)cc1NS(C)(=O)=O [Example 525, N-(5-(1-(2-Chlorophenyl)-7′ fluoro-3′-methyl-2′-oxo-2′,3′-dihydrospiro[azetidine-3,1′-pyrrolo[2,3-c]quinolin]-8′-yl)-2-(2-(isopropylamino)ethoxy)pyridin-3-yl)methanesulfonamide]	0.5 to 1 nM	1 to 100 nM
Cc1ccc(N2CC3(C2)C(=O)N(C)c2cnc4cc(F)c(-c5cnc(OCCNC(C)C)c(NS(C)(=O)=O)c5)cc4c23)cc1 [Example 526, N-(5-(7′-Fluoro-3′-methyl-2′-oxo-1-(p-tolyl)-2′,3′-dihydrospiro[azetidine-3,1′-pyrrolo[2,3-c]quinolin]-8′-yl)-2-(2-(isopropylamino)ethoxy)pyridin-3-yl)methanesulfonamide hydrochloride]	< 0.5 nM	1 to 100 nM
Cc1cccc(N2CC3(C2)C(=O)N(C)c2cnc4cc(F)c(-c5cnc(OCCNC(C)C)c(NS(C)(=O)=O)c5)cc4c23)c1 [Example 527, N-(5-(7′-Fluoro-3′-methyl-2′-oxo-1-(m-tolyl)-2′,3′-dihydrospiro[azetidine-3,1′-pyrrolo[2,3-c]quinolin]-8′-yl)-2-(2-(isopropylamino)ethoxy)pyridin-3-yl)methanesulfonamide]	1 to 100 nM	1 to 100 nM
Cc1ccccc1N1CC2(C1)C(=O)N(C)c1cnc3cc(F)c(-c4cnc(OCCNC(C)C)c(NS(C)(=O)=O)c4)cc3c12 [Example 528, N-(5-(7′-Fluoro-3′-methyl-2′-oxo-1-(o-tolyl)-2′,3′-dihydrospiro[azetidine-3,1′-pyrrolo[2,3-c]quinolin]-8′-yl)-2-(2-(isopropylamino)ethoxy)pyridin-3-yl)methanesulfonamide]	< 0.5 nM	1 to 100 nM
CCc1ccc(N2CC3(C2)C(=O)N(C)c2cnc4cc(F)c(-c5cnc(OCCNC(C)C)c(NS(C)(=O)=O)c5)cc4c23)cc1 [Example 529, N-(5-(1-(4-Ethylphenyl)-7′-fluoro-3′-methyl-2′-oxo-2′,3′-dihydrospiro[azetidine-3,1′-pyrrolo[2,3-c]quinolin]-8′-yl)-2-(2-(isopropylamino)ethoxy)pyridin-3-yl)methanesulfonamide]	1 to 100 nM	1 to 100 nM
CC(C)NCCOc1ncc(-c2cc3c4c(cnc3cc2F)N(C)C(=O)C42CN(c3ccc(C(C)C)cc3)C2)cc1NS(C)(=O)=O [Example 530, N-(5-(7′-Fluoro-1-(4-isopropylphenyl)-3 methyl-2′-oxo-2′,3′-dihydrospiro [azetidine-3,1′-pyrrolo[2,3-c]quinolin]-8′-yl)-2-(2-(isopropylamino)ethoxy)pyridin-3-yl)methanesulfonamide]	0.5 to 1 nM	1 to 100 nM
COCc1ccc(N2CC3(C2)C(=O)N(C)c2cnc4cc(F)c(-c5cnc(OCCNC(C)C)c(NS(C)(=O)=O)c5)cc4c23)cc1 [Example 532, N-(5-(7′-Fluoro-1-(4-(methoxymethyl)phenyl)-3′-methyl-2′-oxo-2′,3′-dihydrospiro[azetidine-3,1′-pyrrolo[2,3-c]quinolin]-8′-yl)-2-(2-(isopropylamino)ethoxy)pyridin-3-yl)methanesulfonamide]	< 0.5 nM	1 to 100 nM
COc1ccc(N2CC3(C2)C(=O)N(C)c2cnc4cc(F)c(-c5cnc(OCCNC(C)C)c(NS(C)(=O)=O)c5)cc4c23)cc1 [Example 533, N-(5-(7′-Fluoro-1-(4-methoxyphenyl)-3 methyl-2′-oxo-2′,3′-dihydrospiro [azetidine-3,1′-pyrrolo[2,3-c]quinolin]-8′-yl)-2-(2-(isopropylamino)ethoxy)pyridin-3-yl)methanesulfonamide]	1 to 100 nM	1 to 100 nM
COc1ccccc1N1CC2(C1)C(=O)N(C)c1cnc3cc(F)c(-c4cnc(OCCNC(C)C)c(NS(C)(=O)=O)c4)cc3c12 [Example 535, N-(5-(7′-Fluoro-1-(2-methoxyphenyl)-3′-methyl-2′-oxo-2′,3′-dihydrospiro [azetidine-3,1′-pyrrolo[2,3-c]quinolin]-8′-yl)-2-(2-(isopropylamino)ethoxy)pyridin-3-yl)methanesulfonamide]	1 to 100 nM	1 to 100 nM
CC(C)NCCOc1ncc(-c2cc3c4c(cnc3cc2F)N(C)C(=O)C42CN(c3ccc(C(F)(F)F)cc3)C2)cc1NS(C)(=O)=O [Example 536, N-(5-(7′-Fluoro-3′-methyl-2′-oxo-1-(4-(trifluoromethyl)phenyl)-2′,3′-dihydrospiro[azetidine-3,1′-pyrrolo[2,3-c]quinolin]-8′-yl)-2-(2-(isopropylamino)ethoxy)pyridin-3-yl)methanesulfonamide hydrochloride]	1 to 100 nM	1 to 100 nM
CC(C)NCCOc1ncc(-c2cc3c4c(cnc3cc2F)N(C)C(=O)C42CN(c3ccc(F)cc3)C2)cc1NS(C)(=O)=O [Example 538, N-(5-(7′-Fluoro-1-(4-fluorophenyl)-3′-methyl-2′-oxo-2′,3′-dihydrospiro [azetidine-3,1′-pyrrolo[2,3-c]quinolin]-8′-yl)-2-(2-(isopropylamino)ethoxy)pyridin-3-yl)methanesulfonamide hydrochloride]	1 to 100 nM	1 to 100 nM
CC(C)NCCOc1ncc(-c2cc3c4c(cnc3cc2F)N(C)C(=O)C42CN(c3cccc(F)c3)C2)cc1NS(C)(=O)=O [Example 539, N-(5-(7′-Fluoro-1-(3-fluorophenyl)-3′-methyl-2′-oxo-2′,3′-dihydrospiro[azetidine-3,1′-pyrrolo[2,3-c]quinolin]-8′-yl)-2-(2-(isopropylamino)ethoxy)pyridin-3-yl)methanesulfonamide]	< 0.5 nM	1 to 100 nM
CC(C)NCCOc1ncc(-c2cc3c4c(cnc3cc2F)N(C)C(=O)C42CN(c3ccccc3F)C2)cc1NS(C)(=O)=O [Example 540, N-(5-(7′-Fluoro-1-(2-fluorophenyl)-3′-methyl-2′-oxo-2′,3′-dihydrospiro [azetidine-3,1′-pyrrolo[2,3-c]quinolin]-8′-yl)-2-(2-(isopropylamino)ethoxy)pyridin-3-yl)methanesulfonamide]	< 0.5 nM	1 to 100 nM
